The values that follow come from patent US20150352142A1, “STABILIZED COMPOSITIONS COMPRISING HYALURONIC ACID” (Carbylan Therapeutics, Inc., priority 2013, published 2015).

Type in all cases: physicochemical
Data set [1] is described as follows: Effect of sucrose on HA viscosity at 60° C. (Example 2). As to conditions: HA solution.
Method: 6.9 g of HA (Lifecore, 888 KDa) was dissolved in 881 mL of 0.9% NaCl overnight. The dissolved HA was sterile filtered with 0.2 μm filter (Millipore, Opticap 4″). 3.97 mL of 1 M Sodium Phosphate, pH 6.71 was added to the HA solution. Then 372 mg of USP grade triamcinolone acetonide (TA) was mixed with 223.2 mL of dissolved HA in a sterile 250 mL Nalgene bottle. […] Each mixture was mixed for 1 hour. No additives were added to the control sample. For each large sample, 2±0.2 mL aliquots were placed in a sterile 4 mL glass vial which was then sealed with septum and aluminum cap. All these aliquoted samples, except the 0 hour samples, were placed in an oven set at 60° C. With the exception of the Day 0 samples, at each time point, 3 of the samples were removed from the oven and allowed to cool to room temperature. The viscosity of each sample was measured using AR550 Rheometer (TA Instrument) with 40 mm 2° steel cone at 22° C. with a 3 min time sweep. The percent retention of the HA viscosity was determined by the ratio of the viscosity (average of the 3 samples) on the specified day to that on Day 0. The stabilization ratio at Day 6 is the ratio of the percent retention of HA viscosity with the specific additive to the percent retention of HA viscosity of the sample with no additive.
Data set [2] is described as follows: Effect of additives on HA viscosity at 60° C., HA/TA (Example 17). As to conditions: HA solution.
Method: 3.92 g of HA (Shiseido, IV=2 m^3/kg) was dissolved in 500 mL of 0.9% NaCl overnight. The dissolved HA was sterile filtered with 0.2 um filter (Millipore, Opticap 4″). 2.16 mL of 1 M Sodium Phosphate, pH 6.71 was added to the HA solution. Then 344.3 mg of USP grade Triamcinolone Acetonide (TA) was mixed with 206.6 mL of dissolved HA in a sterile 250 mL Nalgene bottle. […] No additives were added to the control sample. For each large sample, 2±0.2 mL aliquots were placed in a sterile 4 mL glass vial which was then sealed with septum and aluminum cap. All these aliquoted samples, except the 0 hour samples, were placed in an oven set at 60° C. With the exception of the Day 0 samples, at each time point (Day 1, Day 3 and Day 6), 3 of the samples were removed from the oven and allowed to cool to room temperature. The viscosity of each sample was measured using AR550 Rheometer (TA Instrument) with 40 mm 2° steel cone at 22° C. with a 3 min time sweep. The percent retention of the HA viscosity was determined by the ratio of the viscosity (average of the 3 samples) on the specified day to that on Day 0. The stabilization ratio at Day 6 is the ratio of the percent retention of HA viscosity with the specific additive to the percent retention of HA viscosity of the sample with no additive.
The nature of data set [3]: Specific viscosity retention of crosslinked HA hydrogel/HA solution formulation with and without TA, stored at 25° C. (Example 1A).
Data set [4] in a line: Effect of sucrose on HA viscosity at 80° C. (Example 1B). As to conditions: HA solution. As to the method:
6.9 g of hyaluronic acid, HA (Lifecore, 888 KDa) was dissolved in 881 mL of 0.9% NaCl overnight. The dissolved HA was sterile filtered with 0.2 μm filter (Millipore, Opticap 4″). 3.97 mL of 1 M sodium phosphate, pH 6.71 was added to the HA solution. Then 372 mg of USP grade triamcinolone acetonide (TA) was mixed with 223.2 mL of dissolved HA in a sterile 250 mL Nalgene bottle. […] Each mixture was mixed for 1 hour. No additives were added to the control sample. For each large sample, 2±0.2 mL aliquots were placed in a sterile 4 mL glass vial which was then sealed with septum and aluminum cap. All these aliquoted samples, except the 0 hour samples, were placed in an oven set at 80° C. With the exception of the 0 hour samples, at each time point, 3 of the samples were removed from the oven and allowed to cool to room temperature. The viscosity of each sample was measured using AR550 Rheometer (TA Instrument) with 40 mm 2° steel cone at 22° C. with a 3 min time sweep. The percent retention of the HA viscosity was determined by the ratio of the viscosity (average of the 3 samples) on the specified day to that on 0 hour. The stabilization ratio at 30 hours is the ratio of the percent retention of HA viscosity with the specific additive to the percent retention of HA viscosity of the sample with no additive.

Data set [5] is described as follows: Effect of additives on HA viscosity at 60° C., HA/TA (Example 16). The following applies: HA solution. Here is the method: Then 344.3 mg of USP grade Triamcinolone Acetonide (TA) was mixed with 206.6 mL of dissolved HA in a sterile 250 mL Nalgene bottle. […] No additives were added to the control sample. For each large sample, 2±0.2 mL aliquots were placed in a sterile 4 mL glass vial which was then sealed with septum and aluminum cap. All these aliquoted samples, except the 0 hour samples, were placed in an oven set at 60° C. With the exception of the Day 0 samples, at each time point (Day 1, Day 3 and Day 7), 3 of the samples were removed from the oven and allowed to cool to room temperature. […] The percent retention of the HA viscosity was determined by the ratio of the viscosity (average of the 3 samples) on the specified day to that on Day 0.

A short description of data set [6]: Effect of sucrose on HA (880) viscosity at 55° C. (Example 10). The following applies: HA (880 KDa) solution. As to the method:
4.7 g of HA (Lifecore, 880 KDa) was dissolved in 600 mL of 0.9% NaCl overnight. The dissolved HA was sterile filtered with 0.2 um filter (Millipore, Opticap 4″). 0.84 mL of 1 M Sodium Phosphate, pH 6.71 was added to 167.51 mL of the filtered HA solution. Then 248.4 mg of USP grade Triamcinolone acetonide (TA) was mixed with 144.2 mL of dissolved HA in a sterile 250 mL Nalgene bottle. […] Each mixture was mixed for 1 hour. No additives were added to the control sample. For each large sample, 2±0.2 mL aliquots were placed in a sterile 4 mL glass vial which was then sealed with septum and aluminum cap. All these aliquoted samples, except the 0 hour samples, were placed in an oven set at 55° C. With the exception of the 0 hour samples, at each time point (Day 1, Day 3 and Day 7), 3 of the samples were removed from the oven and allowed to cool to room temperature. The viscosity of each sample was measured using AR550 Rheometer (TA Instrument) with 40 mm 2° steel cone at 22° C. with a 3 min time sweep. The percent retention of the HA viscosity was determined by the ratio of the viscosity (average of the 3 samples) on the specified day to that on Day 0.

Data set [7] is described as follows: Effect of sucrose on HA (730) viscosity at 55° C. (Example 11). The following applies: HA (730 KDa) solution.
Method: 4.7 g of HA (Lifecore, 730 KDa) was dissolved in 600 mL of 0.9% NaCl overnight. The dissolved HA was sterile filtered with 0.2 um filter (Millipore, Opticap 4″). 0.86 mL of 1 M Sodium Phosphate, pH 6.71 was added to 171.8 mL of the HA solution. Then 248.2 mg of USP grade Triamcinolone acetonide (TA) was mixed with 148.9 mL of dissolved HA in a sterile 250 mL Nalgene bottle. […] Each mixture was mixed for 1 hour. No additives were added to the control sample. For each large sample, 2±0.2 mL aliquots were placed in a sterile 4 mL glass vial which was then sealed with septum and aluminum cap. All these aliquoted samples, except the 0 hour samples, were placed in an oven set at 55° C. With the exception of the 0 hour samples, at each time point (Day 1, Day 3 and Day 7), 3 of the samples were removed from the oven and allowed to cool to room temperature. The viscosity of each sample was measured using AR550 Rheometer (TA Instrument) with 40 mm 2° steel cone at 22° C. with a 3 min time sweep. The percent retention of the HA viscosity was determined by the ratio of the viscosity (average of the 3 samples) on the specified day to that on Day 0.
The nature of data set [8]: Effect of sucrose on HA viscosity at 55° C. (Example 3). The following applies: HA solution. As to the method:
6.9 g of HA (Lifecore, 888 KDa) was dissolved in 881 mL of 0.9% NaCl overnight. The dissolved HA was sterile filtered with 0.2 um filter (Millipore, Opticap 4″). 3.97 mL of 1 M Sodium Phosphate, pH 6.71 was added to the HA solution. Then 135.3 mg of USP grade Triamcinolone acetonide (TA) was mixed with 81.2 mL of dissolved HA in a sterile 250 mL Nalgene bottle. […] Each mixture was mixed for 1 hour. No additives were added to the control sample. For each large sample, 2±0.2 mL aliquots were placed in a sterile 4 mL glass vial which was then sealed with septum and aluminum cap. All these aliquoted samples, except the 0 hour samples, were placed in an oven set at 55° C. With the exception of the Day 0 samples, at each time point, 3 of the samples were removed from the oven and allowed to cool to room temperature. The viscosity of each sample was measured using AR550 Rheometer (TA Instrument) with 40 mm 2° steel cone at 22° C. with a 3 min time sweep. The percent retention of the HA viscosity was determined by the ratio of the viscosity (average of the 3 samples) on the specified day to that on Day 0. The stabilization ratio at Day 6 is the ratio of the percent retention of HA viscosity with the specific additive to the percent retention of HA viscosity of the sample with no additive.

A short description of data set [9]: Effect of sucrose on HA viscosity at 40° C. (Example 4). As to conditions: HA solution. Here is the method: 6.9 g of HA (Lifecore, 888 KDa) was dissolved in 881 mL of 0.9% NaCl overnight. The dissolved HA was sterile filtered with 0.2 μm filter (Millipore, Opticap 4″). 3.97 mL of 1 M sodium phosphate, pH 6.71 was added to the HA solution. Then 372 mg of USP grade triamcinolone acetonide (TA) was mixed with 223.2 mL of dissolved HA in a sterile 250 mL Nalgene bottle. […] Each mixture was mixed for 1 hour. No additives were added to the control sample. For each large sample, 2±0.2 mL aliquots were placed in a sterile 4 mL glass vial which was then sealed with septum and aluminum cap. All these aliquoted samples, except the Week 0 samples, were placed in an oven set at 40° C. With the exception of the Day 0 samples, at each time point, 3 of the samples were removed from the oven and allowed to cool to room temperature. The viscosity of each sample was measured using AR550 Rheometer (TA Instrument) with 40 mm 2° steel cone at 22° C. with a 3 min time sweep. The percent retention of the HA viscosity was determined by the ratio of the viscosity (average of the 3 samples) on the specified day to that on Week 0. The stabilization ratio at Week 6 is the ratio of the percent retention of HA viscosity with the specific additive to the percent retention of HA viscosity of the sample with no additive.

Data set [10] can be described thus: Effect of additives on HA viscosity at 60° C., HA/triamcinolone hexacetonide (Example 18). As to conditions: HA solution. As to the method: 19.6 g of HA (Shiseido, IV=2 m^3/kg) was dissolved in 2.5 L of 0.9% NaCl overnight. The dissolved HA was sterile filtered with 0.2 um filter (Millipore, Opticap 4″). 1.15 mL of 1 M Sodium Phosphate, pH 6.71 was added to 228.9 mL of the HA solution. Then 334.9 mg of USP grade Triamcinolone hexacetonide(TH) was mixed with 200.95 mL of dissolved HA in a sterile 250 mL Nalgene bottle. […] Each mixture was mixed for 1 hour. No additives were added to the control sample. For each large sample, 2±0.2 mL aliquots were placed in a sterile 4 mL glass vial which was then sealed with septum and aluminum cap. All these aliquoted samples, except the Day 0 samples, were placed in an oven set at 60° C. With the exception of the Day 0 samples, at each time point, 3 of the samples were removed from the oven and allowed to cool to room temperature. The viscosity of each sample was measured using AR550 Rheometer (TA Instrument) with 40 mm 2° steel cone at 22° C. with a 3 min time sweep. The percent retention of the HA viscosity was determined by the ratio of the viscosity (average of the 3 samples) on the specified day to that on Day 0. The stabilization ratio at Day 6 is the ratio of the percent retention of HA viscosity with the specific additive to the percent retention of HA viscosity of the sample with no additive.

Consider `CC1(C)O[C@@H]2C[C@H]3[C@@H]4CCC5=CC(=O)C=C[C@]5(C)[C@@]4(F)[C@@H](O)C[C@]3(C)[C@]2(C(=O)CO)O1` [TA, triamcinolone acetonide], for which the “effect of presence of corticosteroid on HA viscosity vs HA without it (in words)” value (“effect of presence … vs HA without it (in words)” below) in [1] was “increased degradation of the HA”; in data set [2], “increased degradation of the HA”; in data set [4], “increased degradation of the HA”; in data set [5], “increased degradation of the HA”; in data set [6], “increased decrease in the viscosity of the HA”; in data set [7] it was “increased decrease in the viscosity of the HA”. For the same compound, the “effect of presence … vs HA without it (in words)” value in data set [8] and in data set [9] was “increased degradation of the HA” each time. Besides, the “effect of presence of corticosteroid on HA viscosity vs same formulation without it (in words)” value in data set [3] is reported as “decreased more rapidly over time”.

As to `CC(C)(C)CC(=O)OCC(=O)[C@@]12OC(C)(C)O[C@@H]1C[C@H]1[C@@H]3CCC4=CC(=O)C=C[C@]4(C)[C@@]3(F)[C@@H](O)C[C@@]12C` [triamcinolone hexacetonide, Triamcinolone hexacetonide], in data set [10], the “effect of presence … vs HA without it (in words)” value was “decrease in the viscosity of the HA”.
